Non-standard residues stand in square brackets, D forms with d. Residues, ends and D or L forms follow the SMILES beside them. *: point of attachment. 4Amb = NCc1ccc(C(=O)O)cc1; NHtBu = CC(C)(C)N*; ClAc = O=C(CCl)*; βAla = NCCC(=O)O
Key:
HT-29 = assay: Antiproliferative activity against human HT-29 cells assessed as growth inhibition at 0.2 uM measured after 72 hrs by MTT assay; format: functional; settings: read-out: GI
HCT-116 = assay: Antiproliferative activity against human HCT-116 cells assessed as growth inhibition at 0.2 uM measured after 72 hrs by MTT assay; format: functional; settings: read-out: GI
MCF7 = assay: Antiproliferative activity against human MCF7 cells assessed as growth inhibition at 0.2 uM measured after 72 hrs by MTT assay; format: functional; settings: read-out: GI
[1] = Selectivity ratio of IC50 for inhibition of 20S proteasome beta 5c subunit (unknown origin) to IC50 for inhibition of 20S proteasome subunit beta-5i
DOHH-2 = assay: Antiproliferative activity against human DOHH-2 cells assessed as growth inhibition at 0.2 uM measured after 72 hrs by MTT assay; format: functional; settings: read-out: GI
Pfeiffer = assay: Antiproliferative activity against human Pfeiffer cells assessed as growth inhibition at 0.2 uM measured after 72 hrs by MTT assay; format: functional; settings: read-out: GI
[2] = target: T1, Proteasome Macropain subunit MB1 (Homo sapiens, UniProt P28074); assay: Inhibition of 20S proteasome subunit beta-5c (unknown origin) using Ac-WLA-AMC as substrate and measured after 30 mins
T1 sequence (P28074 whole entry): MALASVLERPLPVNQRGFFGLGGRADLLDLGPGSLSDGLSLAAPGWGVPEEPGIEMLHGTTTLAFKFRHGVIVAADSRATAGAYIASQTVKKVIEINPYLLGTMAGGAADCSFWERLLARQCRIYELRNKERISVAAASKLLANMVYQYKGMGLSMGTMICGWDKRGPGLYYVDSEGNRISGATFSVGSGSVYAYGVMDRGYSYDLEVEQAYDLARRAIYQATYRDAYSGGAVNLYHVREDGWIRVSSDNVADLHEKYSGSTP

[3] = target: T2, Proteasome subunit beta type-8 (Homo sapiens, UniProt P28062); assay: Inhibition of 20S proteasome subunit beta-5i (unknown origin) using Ac-ANW-AMC as substrate and measured after 30 mins
T2 sequence (P28062 whole entry): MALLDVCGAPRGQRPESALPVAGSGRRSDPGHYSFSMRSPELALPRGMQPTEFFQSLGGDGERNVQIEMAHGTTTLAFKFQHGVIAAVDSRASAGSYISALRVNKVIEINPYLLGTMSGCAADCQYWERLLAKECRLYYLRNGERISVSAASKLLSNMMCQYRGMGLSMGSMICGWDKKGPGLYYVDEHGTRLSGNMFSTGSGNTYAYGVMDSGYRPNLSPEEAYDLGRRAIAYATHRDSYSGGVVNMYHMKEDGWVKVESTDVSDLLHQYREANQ

SMILES	Ratio IC50 [1]	IC50 [2] [nM]	IC50 [3] [nM]	inhibition of growth at 0.2 µM (HT-29) [%]	inhibition of growth at 0.2 µM (HCT-116) [%]	inhibition of growth at 0.2 µM (MCF7) [%]	inhibition of growth at 0.2 µM (DOHH-2) [%]	inhibition of growth at 0.2 µM (Pfeiffer) [%]
Cc1ccc(CNC(=O)CNC(=O)[C@H](CCC(=O)NC(C)(C)C)NC(=O)[C@H](CNC(=O)CCl)NC(=O)CN2CCOCC2)cc1	41	3850	94.4					
COC[C@H](NC(=O)[C@H](CCC(=O)NC(C)(C)C)NC(=O)CCNC(=O)CCl)C(=O)NCc1ccc(C)cc1	2	79.4	43.9					
Cc1ccc(CNC(=O)[C@H](Cc2ccccc2)NC(=O)[C@H](CCC(=O)NC(C)(C)C)NC(=O)CCNC(=O)/C(C#N)=C/c2ccc(Cl)cc2)cc1	22			< 20	28	43	< 20	34
Cc1ccc(/C=C(\C#N)C(=O)NCCC(=O)N[C@@H](CCC(=O)NC(C)(C)C)C(=O)N[C@@H](Cc2ccccc2)C(=O)NCc2ccc(C)cc2)cc1	9			< 20	41	< 20	< 20	29
Cc1ccc(CNC(=O)[C@H](Cc2ccccc2)NC(=O)[C@H](CCC(=O)NC(C)(C)C)NC(=O)[C@H](CNC(=O)CCl)NC(=O)C(=O)c2c[nH]c3ccccc23)cc1	2			< 20	44	< 20	< 20	32
COC(=O)C1CCN(C(=O)C[C@H](NC(=O)[C@H](CNC(=O)CCl)NC(=O)CN2CCOCC2)C(=O)N[C@@H](Cc2ccccc2)C(=O)NCc2ccc(C)cc2)CC1	> 16	> 644	644					
CC(C)(C)NC(=O)CC[C@H](NC(=O)CCNC(=O)CC#N)C(=O)N[C@@H](Cc1ccc2ccccc2c1)C(=O)NCc1cccc2ccccc12	52							
Cc1ccc(CNC(=O)[C@H](Cc2ccccc2)NC(=O)[C@H](CCC(=O)N2CCCC2)NC(=O)[C@H](CNC(=O)CCl)NC(=O)CN2CCOCC2)cc1	10	3570						
COc1ccc(/C=C(\C#N)C(=O)NCCC(=O)N[C@@H](CCC(=O)NC(C)(C)C)C(=O)N[C@@H](Cc2ccccc2)C(=O)NCc2ccc(C)cc2)cc1	2			< 20	32	< 20	< 20	28
Cc1ccc(CNC(=O)CNC(=O)[C@H](CCC(=O)NC(C)(C)C)NC(=O)CCNC(=O)CCl)cc1	6	3790	626					
Cc1ccc(CNC(=O)[C@H](Cc2ccccc2)NC(=O)[C@H](CCC(=O)NC(C)(C)C)NC(=O)CCNC(=O)/C(C#N)=C/c2nccs2)cc1	4			< 20	< 20	< 20	22	22
CC[C@H](NC(=O)[C@H](CCC(=O)NC(C)(C)C)NC(=O)CCNC(=O)CCl)C(=O)NCc1ccc(C)cc1	3	204	61.6					
Cc1ccc(CNC(=O)[C@H](Cc2ccccc2)NC(=O)[C@H](CC(=O)NCC2CCCO2)NC(=O)[C@H](CNC(=O)CCl)NC(=O)CN2CCOCC2)cc1 (stereo partly drawn)	3	430	138					
Cc1ccc(CNC(=O)[C@H](Cc2ccccc2)NC(=O)[C@H](CCC(=O)NC(C)(C)C)NC(=O)[C@H](CNC(=O)CCl)NC(=O)CN2CCOCC2)cc1	14			< 20	29	< 20	< 20	32
CC(C)(C)NC(=O)CC[C@H](NC(=O)CCNC(=O)CCl)C(=O)N[C@@H](Cc1ccccc1)C(=O)NCc1ccc(C#N)cc1C(F)(F)F			> 5000					
Cc1ccc(CNC(=O)[C@H](Cc2ccccc2)NC(=O)[C@H](CCC(=O)NC(C)(C)C)NC(=O)CCNC(=O)/C(C#N)=C/C2CC2)cc1	7		9.64	< 20	26	22	25	< 20

Further lines, with some results ahead:

Ratio IC50 [1]	IC50 [2] [nM]	IC50 [3] [nM]	SMILES	inhibition of growth at 0.2 µM (HT-29) [%]	inhibition of growth at 0.2 µM (HCT-116) [%]	inhibition of growth at 0.2 µM (MCF7) [%]	inhibition of growth at 0.2 µM (DOHH-2) [%]	inhibition of growth at 0.2 µM (Pfeiffer) [%]
12			Cc1ccc(CNC(=O)[C@H](Cc2ccccc2)NC(=O)[C@H](CCC(=O)NC(C)(C)C)NC(=O)CCNC(=O)CCl)cc1	< 20	49	< 20	36	< 20
6			COC(=O)c1ccc(CNC(=O)[C@H](Cc2ccccc2)NC(=O)[C@H](CCC(=O)NC(C)(C)C)NC(=O)CCNC(=O)CCl)cc1 ({ClAc-βAla}-Glu(NHtBu)-Phe-[4Amb]-OMe)					
4			Cc1ccc(CNC(=O)[C@H](Cc2ccccc2)NC(=O)[C@H](CCC(=O)NC(C)(C)C)NC(=O)CCNC(=O)/C(C#N)=C/C(C)C)cc1	< 20	30	< 20	27	27
3			Cn1ncc2cc(CNC(=O)[C@H](Cc3ccccc3)NC(=O)[C@H](CCC(=O)NC(C)(C)C)NC(=O)CCNC(=O)CCl)ccc21					
22		125	CC(C)(C)NC(=O)CC[C@H](NC(=O)CCNC(=O)CCl)C(=O)N[C@@H](Cc1ccccc1)C(=O)NCc1cccc(C(F)(F)F)c1					
> 14	> 5000		CC(C)(C)NC(=O)CC[C@H](NC(=O)CCNC(=O)CCl)C(=O)N[C@@H](Cc1ccccc1)C(=O)NCc1ccc(OC(F)(F)F)cc1					
20		6.51	Cc1ccc(CNC(=O)[C@H](Cc2cccc(F)c2)NC(=O)[C@H](CCC(=O)NC(C)(C)C)NC(=O)CCNC(=O)CCl)cc1	< 20	35	< 20	< 20	29
4	81.5		Cc1ccc(CNC(=O)[C@H](Cc2ccccc2F)NC(=O)[C@H](CCC(=O)NC(C)(C)C)NC(=O)CCNC(=O)CCl)cc1					
> 19	> 5000		CC(C)(C)NC(=O)CC[C@H](NC(=O)CCNC(=O)CCl)C(=O)N[C@@H](Cc1ccccc1)C(=O)NCc1ccccc1C(F)(F)F					
		> 5000	CC(C)(C)NC(=O)CC[C@H](NC(=O)CCNC(=O)CCl)C(=O)N[C@@H](Cc1ccccc1)C(=O)NCc1ccc(S(C)(=O)=O)cc1					
27		36.5	Cc1[nH]c2ccc(CNC(=O)[C@H](Cc3ccccc3)NC(=O)[C@H](CCC(=O)NC(C)(C)C)NC(=O)CCNC(=O)CCl)cc2c1C					
> 11	> 5000		Cc1ncsc1-c1ccc(CNC(=O)[C@H](Cc2ccccc2)NC(=O)[C@H](CCC(=O)NC(C)(C)C)NC(=O)CCNC(=O)CCl)cc1					
11			COc1cccc(CNC(=O)[C@H](Cc2ccccc2)NC(=O)[C@H](CCC(=O)NC(C)(C)C)NC(=O)CCNC(=O)CCl)c1					
6			Cc1ccc(CNC(=O)[C@H](Cc2ccccc2)NC(=O)[C@H](CCC(=O)NC(C)(C)C)NC(=O)[C@H](CNC(=O)CCl)NC(=O)OC(C)(C)C)cc1	11	46	< 20	< 20	29
2	13.7	7.33	Cc1ccc(CNC(=O)[C@H](Cc2c[nH]c3ccccc23)NC(=O)[C@H](CCC(=O)NC(C)(C)C)NC(=O)CCNC(=O)CCl)cc1	< 20	29	< 20	< 20	28
12			CC(C)c1ccc(CNC(=O)[C@H](Cc2ccccc2)NC(=O)[C@H](CCC(=O)NC(C)(C)C)NC(=O)CCNC(=O)CCl)cc1					
3			CC(=O)N[C@@H](CNC(=O)CCl)C(=O)N[C@@H](CCC(=O)NC(C)(C)C)C(=O)N[C@@H](Cc1ccccc1)C(=O)NCc1ccc(C)cc1					
15			CC(C)(C)NC(=O)CC[C@H](NC(=O)CCNC(=O)CCl)C(=O)N[C@@H](Cc1ccccc1)C(=O)NCc1ccc2ccccc2c1	< 20	39	< 20	< 20	25
5			CC(C)(C)NC(=O)CC[C@H](NC(=O)CCNC(=O)CCl)C(=O)N[C@@H](Cc1ccccc1)C(=O)NCc1ccc(N2CCOCC2)cc1					
